Data reported in patent US12251422B2, “Compositions and methods for treating neurological and other disorders” (Rush University Medical Center, priority 2018, dated 2025).

Assays:
[1] = target: T1, association between TLR2 and MyD88 (Mus musculus, UniProt Q9QUN7); assay: MyD88 immunoprecipitation / TLR2 western blot in BV-2 microglial cells; type: cell-based; conditions: BV-2 cells, peptides preincubated 1 h, 1 μM fibrillar Aβ1-42 for 1 h, serum-free
T1 construct: disrupt the physical association between endogenous TLR2 and MyD88; endogenous in cells; host or cells: BV-2 microglial cells
Protocol: FIG. 3(A-L). Selective disruption of TLR2 and MyD88 interaction by wtTIDM. In silico analyses of interactions of wtTIDM with TLR1, TLR4, TLR5, TLR6, TLR7, and TLR9. A rigid body interaction analyses were performed in pydock in silico analysis tool. […] G) BV-2 microglial cells preincubated with WtTIDM and mTIDM peptides for 1 h were stimulated with 1 μM fibrillar Aβ1-42 under serum-free condition. After 1 h, cellular extracts were immunoprecipitated with anti-MyD88 antibody followed by western blot of immunoprecipitates for TLR2. As control, cellular extracts were immunoprecipitated with normal IgG. Input was also immunoblotted with TLR2 and MyD88. H) Bands were scanned and values (TLR2/Input) presented as relative to control (n=2 replicates/condition in 3 independent experiments). Results were analyzed by two-sample t-tests. I) BV-2 microglial cells preincubated with wtTIDM and mTIDM peptides for 1 h were stimulated with LPS under serum-free condition. After 1 h, cellular extracts were immunoprecipitated with anti-MyD88 antibody followed by western blot of immunoprecipitates for TLR4. As control, cellular extracts were immunoprecipitated with normal IgG. Input was also immunoblotted with TLR4 and My D88. […] Results were analyzed by two-sample t-tests. […] Results were analyzed by two-sample t-tests.

TNFα and IL-1β = TNFα and IL-1β ELISA in supernatants of WT primary microglia; type: cell-based, mouse; conditions: peptide 1 h, 1 μM fibrillar Aβ1-42 for 18 h
Protocol: FIG. 16 (A-F). […] Primary microglia isolated from WT (A) and TLR2 (−/−) (B) mice were treated with different concentrations of wtTIDM peptide for 1 h followed by stimulation with 1 μM fibrillar Aβ1-42 under serum-free condition. After 1 h of stimulation, the activation of NF-κB was monitored by EMSA. WT (C & D) and TLR2 (−/−) (E & F) microglia were treated with different concentrations of wtTIDM and mTIDM peptides for 1 h followed by stimulation with 1 μM fibrillar Aβ1-42 under serum-free condition. After 18 h of stimulation, levels of TNFα (C & E) and IL-1β (D & F) were monitored in supernatants by ELISA (n=2 replicates/condition in 3 independent experiments). ap<0.001 vs control; bp<0.001 vs stimuli by two-sample t-tests.

T1 sequence (Q9QUN7 25-784): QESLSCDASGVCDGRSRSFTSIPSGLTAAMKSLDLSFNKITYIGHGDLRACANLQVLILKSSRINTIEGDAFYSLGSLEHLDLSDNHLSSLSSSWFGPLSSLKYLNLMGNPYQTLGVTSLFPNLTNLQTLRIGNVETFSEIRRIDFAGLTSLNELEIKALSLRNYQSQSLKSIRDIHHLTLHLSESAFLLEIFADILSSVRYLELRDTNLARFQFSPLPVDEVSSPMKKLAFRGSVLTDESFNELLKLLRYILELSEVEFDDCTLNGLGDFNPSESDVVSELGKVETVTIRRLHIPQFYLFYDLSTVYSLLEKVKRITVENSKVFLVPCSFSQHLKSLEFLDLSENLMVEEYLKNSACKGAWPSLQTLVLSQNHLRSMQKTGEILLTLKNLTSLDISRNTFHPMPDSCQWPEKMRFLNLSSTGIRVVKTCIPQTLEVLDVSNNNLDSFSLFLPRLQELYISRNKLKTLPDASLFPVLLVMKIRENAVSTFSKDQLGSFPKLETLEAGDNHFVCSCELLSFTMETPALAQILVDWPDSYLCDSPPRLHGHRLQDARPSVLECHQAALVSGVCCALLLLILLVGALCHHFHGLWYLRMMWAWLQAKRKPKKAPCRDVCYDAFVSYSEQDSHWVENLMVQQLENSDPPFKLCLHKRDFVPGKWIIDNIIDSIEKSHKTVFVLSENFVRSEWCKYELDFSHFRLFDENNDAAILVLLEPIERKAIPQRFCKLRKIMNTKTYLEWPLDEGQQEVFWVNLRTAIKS

Compound: CC[C@H](C)[C@H](NC(=O)[C@H](CCCCN)NC(=O)[C@@H](NC(=O)[C@H](CCC(N)=O)NC(=O)[C@H](CCCNC(=N)N)NC(=O)[C@@H](N)CC(=O)O)[C@@H](C)CC)C(=O)N[C@@H](Cc1c[nH]c2ccccc12)C(=O)N[C@@H](Cc1ccccc1)C(=O)N[C@@H](CCC(N)=O)C(=O)N[C@@H](CC(N)=O)C(=O)N[C@@H](CCCNC(=N)N)C(=O)N[C@@H](CCCNC(=N)N)C(=O)N[C@@H](CCSC)C(=O)N[C@@H](CCCCN)C(=O)N[C@@H](Cc1c[nH]c2ccccc12)C(=O)N[C@@H](CCCCN)C(=O)N[C@@H](CCCCN)C(=O)N1CCC[C@H]1C(=O)NCC(=O)N[C@@H](C)C(=O)N[C@@H](Cc1c[nH]cn1)C(=O)N[C@@H](CCC(N)=O)C(=O)N[C@@H](CCCCN)C(=O)O [wtTIDM, drqikiwfqnrrmkwkkPGAHQK]
- inhibition of fibrillar Aβ1-42-increased association between TLR2 and MyD88 [1]: inhibited
- inhibition of fibrillar Aβ1-42-induced production of TNFα and IL-1β in WT microglia (TNFα and IL-1β): inhibited
